{"source": "patent US9376470B2", "about": "“Polypeptide having angiogenesis-inducing activity and antibacterial activity, and use thereof for medical purposes” (FunPep Inc., priority 2008, dated 2016)", "test_system": "human vascular endothelial cells and fibroblast cells (co-culture, Angiogenesis Kit KZ-1000)", "details": "polypeptide 10 μg/mL, day 11 of culture", "experimental": "Using AG30-5C as a positive control, the angiogenesis-inducing activity of SR-1 and SR-2 was measured. […] As a negative control, polypeptide-free group (Control) was used.\nCells were cultured at 37° C. under 5% CO2 in a 24-well plate using the special media to which the polypeptide was added. The medium was replaced with a medium containing the same polypeptide on day 4, day 7 and day 9 of culture. On day 11 from the beginning of the culture, the medium was removed and staining was performed using a kit for staining lumina (for CD31 antibody staining) according to the following procedure.\nThe primary antibody (mouse anti-human CD31 antibody) was 4000-fold diluted with a blocking solution (Dulbecco's phosphate buffered saline (PBS(−)) containing 1% BSA). To each well, 0.5 mL of this primary antibody solution was added, and the plate was incubated for 60 minutes at 37° C. After the completion of the incubation, each well was washed totally 3 times with 1 mL of the blocking solution.\nThen, 0.5 mL of a secondary antibody solution (goat anti-mouse IgG/alkaline phosphatase conjugate) 500-fold diluted with the blocking solution was added to each well. The plate was incubated for 60 minutes at 37° C., and thereafter each well was washed 3 times with 1 mL of distilled water. During that period, 2 tablets of BCIP/NBT were dissolved into distilled water, and the obtained solution was filtered through a filter having a pore size of 0.2 μm to prepare a substrate solution. To each well, 0.5 mL of the prepared BCIP/NBT substrate solution was added, and the plate was incubated at 37° C. until the lumina turned to deep purple (typically for 5-10 minutes). After the completion of the incubation, each well was washed 3 times with 1 mL of distilled water. After washing, the washing solution was removed by aspiration, and the plate was left to stand and dry naturally. After drying, photographs of each well were taken under a microscope.\nEach of the obtained images was quantified using an angiogenesis quantification software. Computer analysis was carried out on various parameters.", "note": "Peptide text beside a SMILES is read from it.", "data": [{"smiles": "CC[C@H](C)[C@H](NC(=O)[C@H](CC(C)C)NC(=O)[C@H](CCCCN)NC(=O)[C@H](CC(C)C)NC(=O)[C@@H](N)CCSC)C(=O)N[C@@H](Cc1ccccc1)C(=O)N[C@@H](CC(C)C)C(=O)N[C@@H](Cc1c[nH]cn1)C(=O)N[C@@H](CCCNC(=N)N)C(=O)N[C@@H](CC(C)C)C(=O)N[C@@H](CCCCN)C(=O)N[C@@H](CCCNC(=N)N)C(=O)N[C@@H](CCSC)C(=O)N[C@@H](CCCNC(=N)N)C(=O)N[C@@H](CCCCN)C(=O)N[C@@H](CCCNC(=N)N)C(=O)N[C@@H](CC(C)C)C(=O)N[C@@H](CCCCN)C(=O)N[C@@H](CCCNC(=N)N)C(=O)N[C@@H](CCCCN)C(=O)N[C@@H](CC(C)C)C(=O)N[C@@H](CCCNC(=N)N)C(=O)N[C@@H](Cc1ccccc1)C(=O)N[C@@H](Cc1c[nH]c2ccccc12)C(=O)N[C@@H](Cc1c[nH]cn1)C(=O)N[C@@H](CCCNC(=N)N)C(=O)N[C@@H](CCCCN)C(=O)N[C@@H](CCCNC(=N)N)C(=O)N[C@@H](Cc1ccc(O)cc1)C(=O)N[C@@H](CCCCN)C(=O)O", "note": "[AG30-5C, reference compound] (H-MLKLIFLHRLKRMRKRLKRKLRFWHRKRYK-OH; N-terminus and C-terminus assumed)", "values": [{"measurement": "The Length of Lumina (Percentage when taking Control as 100)", "result": 119.1, "unit": "%"}]}]}
